# Source: ChEMBL document CHEMBL3217463, “Design, synthesis and biological evaluation of -lactam hydroxamate based TACE inhibitors” (Medchemcomm, 2011)
# What was measured:
# Rattus norvegicus [1] = experiment: Toxicity in Wistar rat assessed as total bilirubin at 100 mg/kg, po bid for 28 days (reference value: 0.14 +/- 0.01 mg/dL); format: organism-based; set-up: dose 100 mg/kg, route oral; conditions: in vivo, 672 h
# Blood = experiment: Antiinflammatory activity in human whole blood assessed as inhibition of LPS-induced TNFalpha secretion by ELISA; format: functional, tissue-based
# [2] = target: T1, Disintegrin and metalloproteinase domain-containing protein 10 (Homo sapiens, UniProt O14672); experiment: Inhibition of ADAM10 (unknown origin) using fluorescent substrate by fluorescence-based FRET assay
# T1 sequence (O14672 whole entry): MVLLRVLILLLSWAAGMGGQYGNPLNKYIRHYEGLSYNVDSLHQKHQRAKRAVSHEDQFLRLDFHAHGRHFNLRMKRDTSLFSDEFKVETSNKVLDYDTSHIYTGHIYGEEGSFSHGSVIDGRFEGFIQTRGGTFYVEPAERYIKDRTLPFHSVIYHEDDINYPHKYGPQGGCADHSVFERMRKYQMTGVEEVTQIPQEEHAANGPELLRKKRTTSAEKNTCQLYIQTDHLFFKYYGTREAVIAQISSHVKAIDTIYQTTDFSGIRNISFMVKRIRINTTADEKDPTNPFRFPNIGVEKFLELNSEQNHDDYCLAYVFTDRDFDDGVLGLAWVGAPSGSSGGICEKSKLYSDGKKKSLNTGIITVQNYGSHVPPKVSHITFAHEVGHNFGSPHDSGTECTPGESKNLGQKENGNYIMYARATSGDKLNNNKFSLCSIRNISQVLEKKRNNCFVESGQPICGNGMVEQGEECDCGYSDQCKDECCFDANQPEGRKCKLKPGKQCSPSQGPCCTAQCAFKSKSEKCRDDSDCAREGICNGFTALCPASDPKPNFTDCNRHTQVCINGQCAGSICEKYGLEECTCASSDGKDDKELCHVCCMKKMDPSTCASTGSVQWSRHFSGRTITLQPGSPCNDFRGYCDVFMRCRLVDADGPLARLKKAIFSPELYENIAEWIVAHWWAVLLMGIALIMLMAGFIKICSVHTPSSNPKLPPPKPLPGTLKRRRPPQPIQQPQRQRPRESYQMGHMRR
# [3] = target: T2, Disintegrin and metalloproteinase domain-containing protein 17 (Homo sapiens, UniProt P78536); experiment: Ratio of IC50 for human catalytic domain of TACE to IC50 for MMP3 (unknown origin)
# T2 sequence (P78536 whole entry, the tested form may be a part): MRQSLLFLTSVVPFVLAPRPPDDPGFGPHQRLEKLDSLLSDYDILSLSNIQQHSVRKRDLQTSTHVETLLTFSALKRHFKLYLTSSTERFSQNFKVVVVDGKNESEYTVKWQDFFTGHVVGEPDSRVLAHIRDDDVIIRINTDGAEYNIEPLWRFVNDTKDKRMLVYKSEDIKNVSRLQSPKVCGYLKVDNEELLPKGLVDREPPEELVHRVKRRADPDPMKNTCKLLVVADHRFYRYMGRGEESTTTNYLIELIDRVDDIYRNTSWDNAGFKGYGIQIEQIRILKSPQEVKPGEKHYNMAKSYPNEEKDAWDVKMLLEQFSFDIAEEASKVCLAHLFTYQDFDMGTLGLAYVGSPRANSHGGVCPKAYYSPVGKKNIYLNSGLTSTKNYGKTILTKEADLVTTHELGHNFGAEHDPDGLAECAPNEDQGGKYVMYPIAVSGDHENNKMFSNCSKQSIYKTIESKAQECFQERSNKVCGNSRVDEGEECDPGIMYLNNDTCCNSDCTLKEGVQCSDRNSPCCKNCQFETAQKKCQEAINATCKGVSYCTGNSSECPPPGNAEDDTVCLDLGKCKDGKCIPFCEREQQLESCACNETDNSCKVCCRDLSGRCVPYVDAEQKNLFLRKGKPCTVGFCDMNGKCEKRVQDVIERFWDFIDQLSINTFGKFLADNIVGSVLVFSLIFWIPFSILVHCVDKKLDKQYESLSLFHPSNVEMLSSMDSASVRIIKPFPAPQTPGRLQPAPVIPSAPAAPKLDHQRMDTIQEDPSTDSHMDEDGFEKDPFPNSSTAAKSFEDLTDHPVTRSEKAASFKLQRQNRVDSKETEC
# [4] = target: T2, Disintegrin and metalloproteinase domain-containing protein 17; experiment: Ratio of IC50 for human catalytic domain of TACE to IC50 for MMP9 (unknown origin)
# [5] = Oral bioavailability in Wistar rat at 5 mg/kg; format: ADME, organism-based; conditions: in vivo
# Rattus norvegicus [6] = experiment: Toxicity in Wistar rat assessed as survival at 100 mg/kg, po bid for 28 days; format: organism-based; set-up: dose 100 mg/kg, route oral; conditions: in vivo, 672 h
# Rattus norvegicus [7] = experiment: Toxicity in Wistar rat assessed as adverse changes at 100 mg/kg, po bid for 28 days; format: organism-based; set-up: dose 100 mg/kg, route oral; conditions: in vivo, 672 h
# Rattus norvegicus [8] = experiment: Toxicity in Wistar rat assessed as relative liver weight at 100 mg/kg, po bid for 28 days (reference value: 3.659 +/- 0.1 %); format: organism-based; set-up: dose 100 mg/kg, route oral; conditions: in vivo, 672 h
# Rattus norvegicus [9] = experiment: Toxicity in Wistar rat assessed as relative spleen weight at 100 mg/kg, po bid for 28 days (reference value: 0.201+/- 0.007 %); format: organism-based; set-up: dose 100 mg/kg, route oral; conditions: in vivo, 672 h
compound,measurement,setting,value
COCCc1cc(COc2ccc([C@]3(N)CCN([C@H](CC(C)C)C(=O)NO)C3=O)cc2)c2ccccc2n1,Activity,Rattus norvegicus [1],0.17 mg/dL
same,IC50,Blood,0.013 µM
same,IC50,[2],1.2 µM
same,Ratio IC50,[3],> 500
same,Ratio IC50,[4],> 500
same,bioavailability,[5],59.7%
same,Activity,Rattus norvegicus [6],Non-toxic
same,Activity,Rattus norvegicus [7],Non-toxic
same,Activity,Rattus norvegicus [8],3.801%
same,Activity,Rattus norvegicus [9],0.203%
